These results are taken from publication PMC5218480 (PLoS ONE, 2017).

The assay relates to MV-4-11 cells. The assay can be described thus: Gene expression microarray analysis (Affymetrix PrimeView) and GSEA. It is filed as cell-based, human. More on the design: RFU PODN (11730768_x_at) / Fold change /veh PODN (11730768_x_at) / RFU LINC00158 (11744669_a_at) / Fold change /veh LINC00158 (11744669_a_at) / RFU DUSP10 (11751237_a_at) / Fold change /veh DUSP10 (11751237_a_at) / RFU ID3 (11757404_x_at) / Fold change /veh ID3 (11757404_x_at) / RFU PLEKHG5 (11737974_s_at) / Fold change /veh PLEKHG5 (11737974_s_at) / RFU LRRC4B (11730491_at) / Fold change /veh LRRC4B (11730491_at) / RFU GIMAP4 (11747438_a_at) / Fold change /veh GIMAP4 (11747438_a_at) / RFU KRT8 (11758183_x_at) / Fold change /veh KRT8 (11758183_x_at) / RFU CNN1 (11734310_a_at) / Fold change /veh CNN1 (11734310_a_at) / RFU VPS37D (11726825_at) / Fold change /veh VPS37D (11726825_at) / RFU C10orf10 (11716522_x_at) / Fold change /veh C10orf10 (11716522_x_at) / RFU KIR2DL2 /// KIR2DL4 /// KIR2DL5A /// KIR2DL5B /// KIR2DS1 /// KIR2DS2 /// KIR2DS3 /// KIR2DS4 /// KIR3DL3 /// KIR3DL3 /// KIR3DS1 (11738374_at) / Fold change /veh KIR2DL2 /// KIR2DL4 /// KIR2DL5A /// KIR2DL5B /// KIR2DS1 /// KIR2DS2 /// KIR2DS3 /// KIR2DS4 /// KIR3DL3 /// KIR3DL3 /// KIR3DS1 (11738374_at) / RFU C1QL1 (11718748_at) / Fold change /veh C1QL1 (11718748_at) / RFU TMPRSS4 (11747572_a_at) / Fold change /veh TMPRSS4 (11747572_a_at) / RFU HAMP (11756126_x_at) / Fold change /veh HAMP (11756126_x_at) / RFU RNFT2 (11725882_a_at) / Fold change /veh RNFT2 (11725882_a_at) / RFU NR4A2 (11747474_a_at) / Fold change /veh NR4A2 (11747474_a_at) / RFU ABCC12 (11746883_a_at) / Fold change /veh ABCC12 (11746883_a_at) / RFU TMEM136 (11760407_x_at) / Fold change /veh TMEM136 (11760407_x_at) / RFU CLDN22 /// WWC2 (11732394_at) / Fold change /veh CLDN22 /// WWC2 (11732394_at) / RFU HLA-DPB1 (11760878_x_at) / Fold change /veh HLA-DPB1 (11760878_x_at) / RFU SPINT1 (11716480_a_at) / Fold change /veh SPINT1 (11716480_a_at) / RFU GAP43 (11754022_s_at) / Fold change /veh GAP43 (11754022_s_at) / RFU A4GNT (11735810_at) / Fold change /veh A4GNT (11735810_at) / RFU PRB3 (11715151_x_at) / Fold change /veh PRB3 (11715151_x_at) / RFU TUBB4B (11761932_at) / Fold change /veh TUBB4B (11761932_at) / RFU CAPN14 (11732068_a_at) / Fold change /veh CAPN14 (11732068_a_at) / RFU TMCC2 (11721928_a_at) / Fold change /veh TMCC2 (11721928_a_at) / RFU IRGQ (11745062_a_at) / Fold change /veh IRGQ (11745062_a_at) / RFU FAM174B (11720279_a_at) / Fold change /veh FAM174B (11720279_a_at) / RFU TMPRSS4 (11748680_a_at) / Fold change /veh TMPRSS4 (11748680_a_at) / RFU FAM212B (11763350_a_at) / Fold change /veh FAM212B (11763350_a_at) / RFU PLEKHG5 (11743358_a_at) / Fold change /veh PLEKHG5 (11743358_a_at) / RFU ZSCAN30 (11745921_a_at) / Fold change /veh ZSCAN30 (11745921_a_at) / RFU CMKLR1 (11741424_a_at) / Fold change /veh CMKLR1 (11741424_a_at) / RFU LOC101060620 /// MAPK8IP1 (11723275_at) / Fold change /veh LOC101060620 /// MAPK8IP1 (11723275_at) / RFU SPTSSB (11747773_x_at) / Fold change /veh SPTSSB (11747773_x_at) / RFU PRSS12 (11739890_at) / Fold change /veh PRSS12 (11739890_at) / RFU BIN1 (11741810_x_at) / Fold change /veh BIN1 (11741810_x_at) / RFU WNT11 (11732464_a_at) / Fold change /veh WNT11 (11732464_a_at) / RFU C10orf10 (11716521_a_at) / Fold change /veh C10orf10 (11716521_a_at) / RFU C5orf56 (11738089_at) / Fold change /veh C5orf56 (11738089_at) / RFU CYB561 (11721691_x_at) / Fold change /veh CYB561 (11721691_x_at) / RFU ANKRD19P (11752326_a_at) / Fold change /veh ANKRD19P (11752326_a_at) / RFU OR2T12 /// OR2T33 /// OR2T8 (11738714_s_at) / Fold change /veh OR2T12 /// OR2T33 /// OR2T8 (11738714_s_at) / RFU VCAN (11748164_a_at) / Fold change /veh VCAN (11748164_a_at) / RFU JSRP1 (11732532_at) / Fold change /veh JSRP1 (11732532_at) / RFU KRTAP10-11 (11738290_x_at) / Fold change /veh KRTAP10-11 (11738290_x_at) / RFU MYO3A (11730013_a_at) / Fold change /veh MYO3A (11730013_a_at) / RFU EBF3 (11725865_a_at) / Fold change /veh EBF3 (11725865_a_at) / RFU CAMK2N1 (11719241_x_at) / Fold change /veh CAMK2N1 (11719241_x_at) / RFU C5orf56 (11738088_a_at) / Fold change /veh C5orf56 (11738088_a_at) / RFU OLFML3 (11715873_a_at) / Fold change /veh OLFML3 (11715873_a_at) / RFU LOC100653217 /// NTM (11731650_a_at) / Fold change /veh LOC100653217 /// NTM (11731650_a_at) / RFU MAPK11 (11762145_a_at) / Fold change /veh MAPK11 (11762145_a_at) / RFU FIZ1 (11724087_x_at) / Fold change /veh FIZ1 (11724087_x_at) / RFU OASL (11726364_x_at) / Fold change /veh OASL (11726364_x_at) / RFU SOX15 (11748057_x_at) / Fold change /veh SOX15 (11748057_x_at) / RFU CD79A (11719716_a_at) / Fold change /veh CD79A (11719716_a_at) / RFU HIST1H1D (11736915_at) / Fold change /veh HIST1H1D (11736915_at) / RFU CASKIN2 (11723855_a_at) / Fold change /veh CASKIN2 (11723855_a_at) / RFU LOC730098 (11760151_x_at) / Fold change /veh LOC730098 (11760151_x_at) / RFU OR4N2 (11742367_at) / Fold change /veh OR4N2 (11742367_at) / RFU PRRT2 (11749266_a_at) / Fold change /veh PRRT2 (11749266_a_at) / RFU SNX32 (11753110_a_at) / Fold change /veh SNX32 (11753110_a_at) / RFU CDHR5 (11726645_a_at) / Fold change /veh CDHR5 (11726645_a_at) / RFU RCAN1 (11760418_a_at) / Fold change /veh RCAN1 (11760418_a_at) / RFU FAM167A (11723789_a_at) / Fold change /veh FAM167A (11723789_a_at) / RFU FAM26E (11764081_at) / Fold change /veh FAM26E (11764081_at) / RFU ISYNA1 (11749810_s_at) / Fold change /veh ISYNA1 (11749810_s_at) / RFU ACY1 (11761880_at) / Fold change /veh ACY1 (11761880_at) / RFU 11764098_at / Fold change /veh 11764098_at / RFU SAMD14 (11745864_x_at) / Fold change /veh SAMD14 (11745864_x_at) / RFU NPB (11741838_a_at) / Fold change /veh NPB (11741838_a_at) / RFU TMPRSS6 (11731388_a_at) / Fold change /veh TMPRSS6 (11731388_a_at) / RFU KRTAP10-2 (11738614_at) / Fold change /veh KRTAP10-2 (11738614_at) / RFU ARHGAP8 /// PRR5-ARHGAP8 (11727945_x_at) / Fold change /veh ARHGAP8 /// PRR5-ARHGAP8 (11727945_x_at) / RFU KRTAP5-7 /// NADSYN1 (11734609_at) / Fold change /veh KRTAP5-7 /// NADSYN1 (11734609_at) / RFU RASL12 (11751679_a_at) / Fold change /veh RASL12 (11751679_a_at) / RFU CDKN2B (11736163_a_at) / Fold change /veh CDKN2B (11736163_a_at) / RFU PRF1 (11729649_at) / Fold change /veh PRF1 (11729649_at) / RFU, ZNF638 /// ZNF638-IT1 / Fold change vs veh, ZNF638 /// ZNF638-IT1 / RFU, PANK3 / Fold change vs veh, PANK3 / RFU, SH3YL1 / Fold change vs veh, SH3YL1 / RFU, ZEB2 / Fold change vs veh, ZEB2 / RFU, NRIP1 / Fold change vs veh, NRIP1 / RFU, PTTG1IP / Fold change vs veh, PTTG1IP / RFU, CAPN2 / Fold change vs veh, CAPN2 / RFU, MED14 / Fold change vs veh, MED14 / RFU, SNORA58 / Fold change vs veh, SNORA58 / RFU, C1orf63 / Fold change vs veh, C1orf63 / RFU, LRRFIP1 / Fold change vs veh, LRRFIP1 / RFU, NDUFAF7 / Fold change vs veh, NDUFAF7 / RFU, SLC12A2 / Fold change vs veh, SLC12A2 / RFU, IBTK / Fold change vs veh, IBTK / RFU, ESF1 / Fold change vs veh, ESF1 / Fold change vs veh, TMEM50B / RFU, TAOK1 / Fold change vs veh, TAOK1 / RFU, ACBD3 / Fold change vs veh, ACBD3 / RFU, TMA16 / Fold change vs veh, TMA16 / RFU, RWDD3 / Fold change vs veh, RWDD3 / RFU, BCAT1 / Fold change vs veh, BCAT1 / RFU, EDEM3 / Fold change vs veh, EDEM3 / RFU, TMEM33 / Fold change vs veh, TMEM33 / RFU, WDR75 / Fold change vs veh, WDR75 / RFU, AHCTF1 / Fold change vs veh, AHCTF1 / RFU, TFRC / Fold change vs veh, TFRC / RFU, ZDHHC17 / Fold change vs veh, ZDHHC17 / RFU, NOM1 / Fold change vs veh, NOM1 / RFU, ARL8B / Fold change vs veh, ARL8B / RFU, ZBTB11 / Fold change vs veh, ZBTB11 / RFU, TAMM41 / Fold change vs veh, TAMM41 / RFU, KIAA1704 /// LOC100996395 / Fold change vs veh, KIAA1704 /// LOC100996395 / RFU, ING1 / Fold change vs veh, ING1 / RFU, TRMT61B / Fold change vs veh, TRMT61B / RFU, FUBP3 / Fold change vs veh, FUBP3 / RFU, TP53 / Fold change vs veh, TP53 / RFU, TNKS2 / Fold change vs veh, TNKS2 / RFU, ZFP14 / Fold change vs veh, ZFP14 / RFU, ACTR2 / Fold change vs veh, ACTR2 / RFU, PPP3R1 / Fold change vs veh, PPP3R1 / RFU, PIK3R1 / Fold change vs veh, PIK3R1 / RFU, HNRNPA1 / Fold change vs veh, HNRNPA1 / RFU, RNF170 / Fold change vs veh, RNF170 / RFU, ZNF28 / Fold change vs veh, ZNF28 / RFU, RNGTT / Fold change vs veh, RNGTT / RFU, OGT / Fold change vs veh, OGT / RFU, BRD1 / Fold change vs veh, BRD1 / RFU, MARS / Fold change vs veh, MARS / RFU, ZNF655 / Fold change vs veh, ZNF655 / RFU, FAHD1 / Fold change vs veh, FAHD1 / RFU, BDP1 / Fold change vs veh, BDP1 / RFU, LRRCC1 / Fold change vs veh, LRRCC1 / RFU, ARID1A / Fold change vs veh, ARID1A / RFU, ZNF146 / Fold change vs veh, ZNF146 / RFU, ZNF330 / Fold change vs veh, ZNF330 / RFU, GPN3 / Fold change vs veh, GPN3 / RFU, C9orf123 / Fold change vs veh, C9orf123 / RFU, N4BP2L2 / Fold change vs veh, N4BP2L2 / RFU, ARFIP1 / Fold change vs veh, ARFIP1 / RFU, FAM179B / Fold change vs veh, FAM179B / RFU, BCL10 / Fold change vs veh, BCL10 / RFU, UHRF1BP1L / Fold change vs veh, UHRF1BP1L / RFU, BET1 / Fold change vs veh, BET1 / RFU, CNOT2 / Fold change vs veh, CNOT2 / RFU, ZNF268 / Fold change vs veh, ZNF268 / Fold change vs veh, ZNF507 / RFU, DGCR2 / Fold change vs veh, DGCR2 / RFU, WDSUB1 / Fold change vs veh, WDSUB1 / Fold change vs veh, HSP90B1 /// MIR3652 / RFU, ADSS / Fold change vs veh, ADSS / RFU, GK / Fold change vs veh, GK / RFU, ZNF148 / Fold change vs veh, ZNF148 / RFU, TAF9 / Fold change vs veh, TAF9 / RFU, SLC1A5 / Fold change vs veh, SLC1A5 / RFU, SLMO2 / Fold change vs veh, SLMO2 / RFU, ABCC4 / Fold change vs veh, ABCC4 / RFU, LOC101060439 /// RAP1B / Fold change vs veh, LOC101060439 /// RAP1B / RFU, RFX7 / Fold change vs veh, RFX7 / RFU, GTPBP10 / Fold change vs veh, GTPBP10 / RFU, CNEP1R1 / Fold change vs veh, CNEP1R1 / RFU, BIVM-ERCC5 /// ERCC5 / Fold change vs veh, BIVM-ERCC5 /// ERCC5 / RFU, ILF3 / Fold change vs veh, ILF3 / RFU 11762660_at / Fold change /veh 11762660_at / RFU VCAN (11757783_s_at) / Fold change /veh VCAN (11757783_s_at) / RFU DDX43 (11728927_at) / Fold change /veh DDX43 (11728927_at) / RFU KRT8 (11758188_x_at) / Fold change /veh KRT8 (11758188_x_at) / RFU NKD1 (11759106_at) / Fold change /veh NKD1 (11759106_at) / RFU SRD5A1 (11742802_a_at) / Fold change /veh SRD5A1 (11742802_a_at) / RFU TPSAB1 /// TPSB2 (11721975_s_at) / Fold change /veh TPSAB1 /// TPSB2 (11721975_s_at) / RFU GSTM3 (11746129_a_at) / Fold change /veh GSTM3 (11746129_a_at) / RFU IL23R (11737362_x_at) / Fold change /veh IL23R (11737362_x_at) / RFU TMEM51 (11727254_a_at) / Fold change /veh TMEM51 (11727254_a_at) / RFU PIWIL2 (11732686_x_at) / Fold change /veh PIWIL2 (11732686_x_at) / RFU ORM1 (11744905_x_at) / Fold change /veh ORM1 (11744905_x_at) / RFU CCDC152 (11743942_at) / Fold change /veh CCDC152 (11743942_at) / RFU ECM1 (11717891_a_at) / Fold change /veh ECM1 (11717891_a_at) / RFU IL23R (11748794_a_at) / Fold change /veh IL23R (11748794_a_at) / RFU TNFAIP8L3 (11732012_x_at) / Fold change /veh TNFAIP8L3 (11732012_x_at) / RFU MBOAT4 (11741988_at) / Fold change /veh MBOAT4 (11741988_at) / RFU 11764193_at / Fold change /veh 11764193_at / RFU TMEM53 (11763286_at) / Fold change /veh TMEM53 (11763286_at) / RFU MAGEB2 (11727129_at) / Fold change /veh MAGEB2 (11727129_at) / RFU TMEM200A (11744735_a_at) / Fold change /veh TMEM200A (11744735_a_at) / RFU CCDC152 (11751479_a_at) / Fold change /veh CCDC152 (11751479_a_at) / RFU FAM211A (11726209_a_at) / Fold change /veh FAM211A (11726209_a_at) / RFU RGS16 (11746705_a_at) / Fold change /veh RGS16 (11746705_a_at) / RFU VCAN (11755009_s_at) / Fold change /veh VCAN (11755009_s_at) / RFU RHOB (11743442_s_at) / Fold change /veh RHOB (11743442_s_at) / RFU RGS16 (11720943_a_at) / Fold change /veh RGS16 (11720943_a_at) / RFU RGS16 (11720944_at) / Fold change /veh RGS16 (11720944_at) / RFU, VPS4B / Fold change vs veh, VPS4B / RFU, CREB1 / Fold change vs veh, CREB1 / RFU, DNAJC13 / Fold change vs veh, DNAJC13 / RFU, GNAQ / Fold change vs veh, GNAQ / RFU, CDK5R1 / Fold change vs veh, CDK5R1 / RFU, ZRANB3 / Fold change vs veh, ZRANB3 / RFU, CUL4A / Fold change vs veh, CUL4A / RFU, CCNY / Fold change vs veh, CCNY / RFU, UFL1 / Fold change vs veh, UFL1 / RFU, COG3 / Fold change vs veh, COG3 / RFU, DIAPH2 / Fold change vs veh, DIAPH2 / RFU, SKA2 / Fold change vs veh, SKA2 / RFU, AFF3 / Fold change vs veh, AFF3 / RFU, LMF1 / Fold change vs veh, LMF1 / RFU, IPO11 / Fold change vs veh, IPO11 / RFU, DFFB / Fold change vs veh, DFFB / RFU, FOXP1 / Fold change vs veh, FOXP1 / RFU, CARD8 / Fold change vs veh, CARD8 / RFU, STRN3 / Fold change vs veh, STRN3 / RFU, ADK / Fold change vs veh, ADK / RFU, RASSF2 / Fold change vs veh, RASSF2 / RFU, WIPF1 / Fold change vs veh, WIPF1 / RFU, LARP1B / Fold change vs veh, LARP1B / RFU, RASA1 / Fold change vs veh, RASA1 / RFU, RB1 / Fold change vs veh, RB1 / RFU, PPFIA1 / Fold change vs veh, PPFIA1 / RFU, MAT2A / Fold change vs veh, MAT2A / RFU, CCT5 / Fold change vs veh, CCT5 / RFU, WDR92 / Fold change vs veh, WDR92 / RFU, CUX1 / Fold change vs veh, CUX1 / RFU, TTC7A / Fold change vs veh, TTC7A / RFU, TMEM135 / Fold change vs veh, TMEM135 / RFU, DEPTOR / Fold change vs veh, DEPTOR / RFU, CPM / Fold change vs veh, CPM / RFU, DNAJB6 / Fold change vs veh, DNAJB6 / RFU, CACNA2D3 / Fold change vs veh, CACNA2D3 / RFU, DTX4 / Fold change vs veh, DTX4 / RFU, TFCP2 / Fold change vs veh, TFCP2 / RFU, GMCL1 /// GMCL1P1 / Fold change vs veh, GMCL1 /// GMCL1P1 / RFU, AEBP2 / Fold change vs veh, AEBP2 / RFU, SNHG1 /// SNORD22 /// SNORD25 /// SNORD26 /// SNORD27 /// SNORD28 /// SNORD29 /// SNORD31 / Fold change vs veh, SNHG1 /// SNORD22 /// SNORD25 /// SNORD26 /// SNORD27 /// SNORD28 /// SNORD29 /// SNORD31 / Fold change (Aza/veh), C12orf56 (ProbeSet 11735607_a_at) / Fold change (ACY-1035/veh), C12orf56 (ProbeSet 11735607_a_at) / Fold change (Aza/veh), FGFR1OP (ProbeSet 11751329_s_at) / Fold change (ACY-1035/veh), FGFR1OP (ProbeSet 11751329_s_at) / Fold change (Aza/veh), VPS36 (ProbeSet 11739960_a_at) / Fold change (ACY-1035/veh), VPS36 (ProbeSet 11739960_a_at) / RFU SYPL1 (11715823_x_at) / Fold change /veh SYPL1 (11715823_x_at) / RFU IGFBP7 (11715501_s_at) / Fold change /veh IGFBP7 (11715501_s_at) / RFU REEP3 (11722064_at) / Fold change /veh REEP3 (11722064_at) / RFU IGLL1 (11728026_x_at) / Fold change /veh IGLL1 (11728026_x_at): dose or concentration left out as unconfirmed. Conditions: MV-4-11 cells, 48 hours.

As to `Nc1ncn([C@@H]2O[C@H](CO)[C@@H](O)[C@H]2O)c(=O)n1` [azacitidine], the “RFU OR4N2 (11742367_at)” value is reported as 68.76 RFU.
